Laboratory results: US9192567B2, “Method for treating eye disease or conditions affecting the posterior segment of the eye” (SANTEN SAS, priority 2006, dated 2015)

Assay: Intraocular pharmacokinetics of dexamethasone palmitate and dexamethasone following intravitreal administration
Details: following IVT injection of 800 ug of prodrug
Text: Analytes and internal standard (roxithromycine) were extracted from the tissues using acetonitrile and separated by reverse phase liquid chromatography with a C8 column and a gradient mobile phase. […] The unweighed linear model was applied.
All concentrations are expressed in ng/g.

## C[C@@H]1C[C@H]2[C@@H]3CCC4=CC(=O)C=C[C@]4(C)[C@@]3(F)[C@@H](O)C[C@]2(C)[C@@]1(O)C(=O)CO [D, dexamethasone]
  time for which therapeutic levels were maintained in the target tissues: at least 2 months
